ChEMBL document CHEMBL1124112, “Indoline analogues of idazoxan: potent alpha 2-antagonists and alpha 1-agonists” (J Med Chem, 1988)

Key:
[1] = target: T1, Adrenergic receptor alpha-2 (Rattus norvegicus, UniProt P22086+P19328+P22909); test: Inhibition of saturable binding of [3H]idazoxan to alpha2-site in rat cerebral cortical membranes.; assay type: cell membranes, Membrane
T1 sequence (P22086 whole entry): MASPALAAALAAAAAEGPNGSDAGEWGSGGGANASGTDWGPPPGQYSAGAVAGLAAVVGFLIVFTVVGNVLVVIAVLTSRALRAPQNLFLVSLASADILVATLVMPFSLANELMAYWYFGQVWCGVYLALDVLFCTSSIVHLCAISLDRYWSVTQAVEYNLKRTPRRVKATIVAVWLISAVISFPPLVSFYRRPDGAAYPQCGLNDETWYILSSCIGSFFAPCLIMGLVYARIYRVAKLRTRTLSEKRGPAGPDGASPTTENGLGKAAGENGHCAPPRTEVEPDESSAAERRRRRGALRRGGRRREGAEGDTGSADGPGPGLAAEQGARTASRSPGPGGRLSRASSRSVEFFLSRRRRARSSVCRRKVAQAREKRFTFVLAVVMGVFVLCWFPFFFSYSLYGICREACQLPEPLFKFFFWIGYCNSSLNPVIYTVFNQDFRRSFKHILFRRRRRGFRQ
T1 sequence (P19328 whole entry): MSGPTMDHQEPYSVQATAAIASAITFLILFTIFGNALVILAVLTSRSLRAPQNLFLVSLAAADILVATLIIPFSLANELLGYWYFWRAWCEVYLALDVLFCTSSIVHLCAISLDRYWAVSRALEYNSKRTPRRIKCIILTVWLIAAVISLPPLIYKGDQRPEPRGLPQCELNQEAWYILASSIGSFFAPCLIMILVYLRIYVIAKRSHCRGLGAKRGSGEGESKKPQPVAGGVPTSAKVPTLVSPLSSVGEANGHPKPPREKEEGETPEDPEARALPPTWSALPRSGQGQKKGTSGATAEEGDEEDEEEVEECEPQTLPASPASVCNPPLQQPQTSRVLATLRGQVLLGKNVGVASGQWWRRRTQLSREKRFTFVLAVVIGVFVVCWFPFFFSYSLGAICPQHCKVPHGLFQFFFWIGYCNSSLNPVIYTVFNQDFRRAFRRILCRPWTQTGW
T1 sequence (P22909 whole entry): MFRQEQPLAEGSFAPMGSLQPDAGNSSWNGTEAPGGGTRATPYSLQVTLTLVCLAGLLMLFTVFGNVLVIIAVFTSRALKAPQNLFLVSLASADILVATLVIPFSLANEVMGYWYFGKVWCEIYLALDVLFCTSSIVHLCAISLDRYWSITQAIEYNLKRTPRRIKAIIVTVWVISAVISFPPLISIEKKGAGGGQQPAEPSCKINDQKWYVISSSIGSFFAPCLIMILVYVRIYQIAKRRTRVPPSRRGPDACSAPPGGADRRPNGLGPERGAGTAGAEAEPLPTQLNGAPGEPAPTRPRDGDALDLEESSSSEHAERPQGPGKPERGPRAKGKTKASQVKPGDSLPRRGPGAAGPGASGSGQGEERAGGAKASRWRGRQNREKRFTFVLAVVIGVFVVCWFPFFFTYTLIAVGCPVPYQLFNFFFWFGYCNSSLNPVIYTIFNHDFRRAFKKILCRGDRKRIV

Rattus norvegicus = test: In vivo antagonist dose producing two fold shift of UK-14,304 in pithed rats. (prejunctional)

Ki [1]: 1.87 nM
SMILES: c1ccc(CN2c3ccccc3CC2C2=NCCN2)cc1 (configuration not stated)
DR2 (Rattus norvegicus): 0.0087 mg/kg
